Consider three molecules from patent US20260014167A1, “Treating Amyotrophic Lateral Sclerosis Having Onset 24 Months Prior to Treatment” (Woolsey Pharmaceuticals, Inc., priority 2022, published 2026).

The subject of series [1] is human ALS patients. The note with it: 30 mg intravenously twice daily over 20 consecutive working days; cited from earlier work.
Series [2] relates to ALS patients. In words: Fasudil treatment of patients with disease onset at least 24 months prior to treatment. The class given is in vivo, human. The text has this:
This could not have been predicted from the trials with edaravone, above. […] (Liu 2016). The invention is based on the surprising discovery that orally-administered fasudil can treat ALS patients with disease onset of about two years or more prior treatment. These patients include but are not limited to patients with more advanced disease, but also includes slow-progressing patients.

The subject of series [3] is ALS disease onset of between 3 and 36 months. As to conditions: 30 mg, twice a day, 6-month study; cited from earlier work.
The conditions of series [4]: in vivo, 1-hydroxy (M3) metabolite; cited from earlier work.
For series [5], the system named is ALS patients. The note with it: patients diagnosed two years or less; cited from earlier work.
Series [6] concerns ALS patients. As to conditions: enrollment of three years or less; cited from earlier work.
Series [7] relates to severe ALS patients. The note with it: disease onset of less than three years; cited from earlier work.

Read-outs that look alike come from different tables or passages of the source.

Regarding `Cl.O=S(=O)(c1cccc2cnccc12)N1CCCNCC1` [Fasudil, Hexahydro-1-(5-isoquinolinesulfonyl)-1H-1,4-diazepine monohydrochloride hemihydrate], the “outcome of compassionate use” value in series [1] is listed as “no conclusive results beyond safety”. In series [2], the benefit from treatment result is on record as “benefitted”. Further, the disease modification result in series [3] is recorded as “did not result in any disease modification”.

As to `O=S(=O)(c1cccc2c(O)nccc12)N1CCCNCC1` [M3, hydroxyfasudil], the half-life result in series [4] is on record as “about 8 hours”.

As to `CC1=NN(c2ccccc2)C(=O)C1` [edaravone], the results for the primary endpoint result in series [5] and in series [6] were “met the primary endpoint” and “did not meet the primary endpoint”, respectively. In addition, the “treatment effect between placebo and edaravone” value in series [7] is “failed to demonstrate any treatment effect”.
